From patent publication US5945426A, “Derivatives of pyrimidine for treating acute cerebrovascular disorders” (Nippon Shinyaku Co., Ltd., priority 1994, dated 1999)
Structures can show the parent of a compound that is named as a salt.

Experiments:
[1] = test system: delayed neuronal death; conditions: background art; cited from earlier work
[2] = test system: pyramidal cells in the hippocampal CA-1 subfield; test: Delayed Neuronal Death (DND) Inhibitory Activity in Gerbils (transient ischemia, bilateral common carotid artery occlusion); format: in vivo; conditions: for DND inhibition (score of neuronal death in the hippocampal CA-1 subfield): given at reperfusion after 5-minute ischemia, score 0 (0-10% death) to 4 (75-100% death), control 4.00, n=5, **: p < 0.01 (Wilcoxon's U test)
Description: Delayed Neuronal Death (DND) Inhibitory Activity in Gerbils
The delayed neuronal death protective effect of the compound of the invention was confirmed by an experiment using gerbils. This test is the most widely used for all relevant in vivo evaluation protocols and it is reported that any drug showing DND inhibitory activity in this test system can be expected to be clinically effective in humans [GENDAI-IRYO, 24, 129-133 (1992), Neurology 1987, 37, 1281-1287).
Male gerbils weighing 60-80 g were anesthetized with pentobarbital sodium 35 mg/kg i.p. and placed in supine position. After the skin in the cervical region was incised, the bilateral common carotid arteries were exposed and sutures were placed around each artery. Both ends of each suture was introduced into a polyethylene tube and in suturing the incised wound, the tube was secured to the cervical skin with the suture emerged from the other end of the tube. On the following day, with the animal under no anesthesia, both ends of the suture were gently pulled out and the carotid artery snared by the suture was urged in a bent position into the tube to thereby occlude the carotid artery. After a transient ischemic loading of 5 minutes' duration by occlusion of the bilateral common carotid arteries, the arteries were reperfused. After 7 days, the brain was excised and fixed. A section centered around the hippocampus was prepared and Nissle-stained with 0.05% cresyl violet and the pyramidal cells in the hippocampal CA-1 subfield were microscopically examined for degeneration and death. The degree of neuronal death was scored according to the following criteria.
Criteria for evaluation of neuronal death in the hippocampal CA-1 subfield

[3] = Acute Toxicity Study; format: in vivo
Description: Male SD rats (Slc:SD, Japan SLC) were used. The rats were purchased at 7 weeks of age and the animals which went through a week-long quarantine and acclimation were used in groups of 6. The dose volume was 5 ml/kg for intraperitoneal administration and 10 ml/kg for intravenous administration. […] The drug solutions were prepared using physiological saline and filtered through a 0.22 μm bacterial filter.

[4] = test system: NMDA receptor; test: NMDA-Induced Convulsion Inhibitory Activity; format: in vivo, Mice; conditions: 20 mg/kg, i.p. 30 minutes before NMDA 200 mg/kg i.p.
Description: NMDA-Induced Convulsion Inhibitory Activity
Mice were intraperitoneally dosed with 200 mg/kg of N-methyl-D-aspartate (NMDA) and observed for the consequent convulsion and death over a period of 30 minutes after administration. As test drugs, the compound of Example 1, compound of Example 2, compound of Reference Example 10, and compound of Reference Example 12 were used and each was administered intraperitoneally 30 minutes before administration of NMDA.

[5] = test system: cerebral infarction (middle cerebral artery occlusion); test: Protection of Cerebral Infarction in Rats With Middle Cerebral Artery Occlusion; format: in vivo, Male SD rats; conditions: 0.125 mg/kg, intravenously after middle cerebral artery occlusion
Description: Protection of Cerebral Infarction in Rats With Middle Cerebral Artery Occlusion
The cerebral infarction protective effect of the compound of the invention was confirmed in a rat middle cerebral artery occlusion model. This is an animal model of brain regional ischemia which is similar to human cerebral infarction and it is known that the model is useful as a therapeutic model as well (Cerebral Apoplexy Experiment Handbook, 91-97, 1990, published by ICP). Any drug showing cerebral infarction protective activity in this test system can be expected to be clinically effective in humans.
Male SD rats aged 7-8 weeks were anesthetized with ketamin hydrochloride 120-150 mg/kg, i.p. and the head was placed in lateral recumbent position on an operation table. […] Then, the frontal sections were photographed and using an image processor, the areas of infarction were measured. The percentage of the infarct area in the frontal section 6 mm caudal to frontal rostrum, that is at the striatal level, relative to the total area of the tissue section and the total infarct area of the 5 frontal sections prepared at 2 mm intervals from the frontal rostrum was calculated and the percentage of the total infarct area relative to the total area of all the sections was calculated. […]

[6] = background art; cited from earlier work

Structure (SMILES) | DND inhibition (score of neuronal death in the hippocampal CA-1 subfield) ([2]; 50 mg/kg i.p.) | general condition of animals ([3]; rat, in vivo, ip) | inhibition of NMDA-induced convulsion [4] | also measured
CCCn1cnc2c1c(=O)n(CCCCC(C)=O)c(=O)n2C [propentofylline] | – | – | – | effect against delayed neuronal death [1]: effective against delayed neuronal death
Cc1nc(OC(C)CCCN2CCCCC2)cc(-c2ccc(F)cc2)n1.Cl (centres unmarked) [Example 21, 4-(4-Fluorophenyl)-2-methyl-6-(1-methyl-4-piperidinobutoxy)pyrimidine hydrochloride] | 0.60 | no remarkable change | – | –
Cc1nc(OCCCN2CCCCC2)cc(-c2ccc(F)cc2)n1.Cl [Reference Example 10, 4-(4-Fluorophenyl)-2-methyl-6-(3-piperidinopropoxy)pyrimidine hydrochloride] | 0.60 | no remarkable change | did not inhibit | –
Cc1cc(OCCCCN2CCCCC2)nc(-c2ccc(F)cc2)n1.Cl [Example 4, 2-(4-Fluorophenyl)-4-methyl-6-(4-piperidinobutoxy)pyrimidine hydrochloride] | 0.60 | no remarkable change | – | –
Cc1nc(OCCCCCCN2CCCCC2)cc(-c2ccc(F)cc2)n1 [Example 3, 4-(4-Fluorophenyl)-2-methyl-6-(6-piperidinohexyloxy)primidine hydrochloride] | – | no remarkable change | – | DND inhibition (score of neuronal death in the hippocampal CA-1 subfield) ([2]; 30 mg/kg, i.p.): 0.60
Cc1nc(OCCCCN2CCCCC2)cc(-c2ccc(F)cc2)n1.Cl [Example 2, 4-(4-Fluorophenyl)-2-methyl-6-(4-piperidinobutoxy)pyrimidine hydrochloride] | 0.80 | no remarkable change | did not inhibit | –
Cc1cc(-c2ccc(F)cc2)cc(OCCCCCN2CCCCC2)n1.Cl [Example 18, 4-(4-Fluorophenyl)-2-methyl-6-(5-piperidinopentyloxy)pyridine hydrochloride] | 0.80 | no remarkable change | – | –
Cc1cc(-c2ccc(F)cc2)cc(OCCCN2CCCCC2)n1.Cl [Example 16, 4-(4-Fluorophenyl)-2-methyl-6-(3-piperidinopropoxy)pyridine hydrochloride] | 0.60 | no remarkable change | – | –
Cc1nc(OCCCCCN2CCCCC2)cc(-c2ccc(F)cc2)n1.Cl [Example 1, 4-(4-Fluorophenyl)-2-methyl-6-(5-piperidinopentyloxy)pyrimidine hydrochloride] | 0.60 | – | did not inhibit | protection activity against the delayed neuronal death, post-ischemia dosing ([2]; single dose after a lapse of 1-2 hours after ischemia): exhibited a protection activity against the delayed neuronal death; inhibition of neuronal death in the rat model of persistent brain ischemia [5]: markedly inhibited neuronal death; general condition of animals ([3]; intraperitoneal, observed daily for 7 days): no remarkable change; LD50 at 168 h ([3]; rat, in vivo, ip, intraperitoneal): 65.8 mg/kg; LD50 at 168 h ([3]; rat, in vivo, intravenous): 22.8 mg/kg
Cc1cc(OCCCN2CCCCC2)nc(-c2ccc(F)cc2)n1.Cl [Reference Example 12, 2-(4-Fluorophenyl)-4-methyl-6-(3-piperidinopropoxy)pyrimidine hydrochloride] | – | – | did not inhibit | –
Cc1cc(OCCN2CCN(c3ccccc3)CC2)nc(-c2ccccc2)n1 [4-methyl-2-phenyl-6-[2-(4-phenylpiperazin-1-yl)ethyloxy]pyrimidine] | – | – | – | α-sympatholytic activity (sedation, hypotension, and vasodilation) [6]: has α-sympatholytic activity (sedation, hypotension, and vasodilation)
